Targets include BMPR1B (Homo sapiens, UniProt O00238); CASK (Homo sapiens, UniProt O14936); AURKB (Homo sapiens, UniProt Q96GD4); SRMS (Homo sapiens, UniProt Q9H3Y6); EPHB1 (Homo sapiens, UniProt P54762); PIP5K1C (Homo sapiens, UniProt O60331); DAPK2 (Homo sapiens, UniProt Q9UIK4); ABL2 (Homo sapiens, UniProt P42684); FLT1 (Homo sapiens, UniProt P17948); PRKCE (Homo sapiens, UniProt Q02156); PAK6 (Homo sapiens, UniProt Q9NQU5); HIPK2 (Homo sapiens, UniProt Q9H2X6); FGFR2 (Homo sapiens, UniProt P21802); MAP3K2 (Homo sapiens, UniProt Q9Y2U5); CDK8 (Homo sapiens, UniProt P49336); KIT(D816H) (Homo sapiens, UniProt P10721, D816H); TYRO3 (Homo sapiens, UniProt Q06418).

Common to all, as to experiment: biochemical
Design in all cases: KINOMEscan active-site-directed competition binding panel, 468 kinases, percent of DMSO control at 1 uM
Common to all, as to details: KINOMEscan binding, percent of DMSO control; read-out: Ctrl%

Test [1] addresses T1, RPS6KA5(Kin.Dom.2-C-terminal) (Homo sapiens, UniProt O75582).
T1 construct: Kin.Dom.2-C-terminal

A further test concerns the target T2, YES (Homo sapiens, UniProt P07947).
T2 construct: gene YES1

A further test deals with T3, TRKC (Homo sapiens, UniProt Q16288).
T3 construct: gene NTRK3

Test [2] deals with T4, RSK2(Kin.Dom.2-C-terminal) (Homo sapiens, UniProt P51812).
T4 construct: gene RPS6KA3; Kin.Dom.2-C-terminal

Test [3] deals with T5, RSK4(Kin.Dom.1-N-terminal) (Homo sapiens, UniProt Q9UK32).
T5 construct: gene RPS6KA6; Kin.Dom.1-N-terminal

In another test the target is T6, SgK110 (Homo sapiens, UniProt P0C264).
T6 construct: gene SBK3

For another test, the target named is T7, p38-alpha (Homo sapiens, UniProt Q16539).
T7 construct: gene MAPK14
T7 sequence (Q16539 whole entry): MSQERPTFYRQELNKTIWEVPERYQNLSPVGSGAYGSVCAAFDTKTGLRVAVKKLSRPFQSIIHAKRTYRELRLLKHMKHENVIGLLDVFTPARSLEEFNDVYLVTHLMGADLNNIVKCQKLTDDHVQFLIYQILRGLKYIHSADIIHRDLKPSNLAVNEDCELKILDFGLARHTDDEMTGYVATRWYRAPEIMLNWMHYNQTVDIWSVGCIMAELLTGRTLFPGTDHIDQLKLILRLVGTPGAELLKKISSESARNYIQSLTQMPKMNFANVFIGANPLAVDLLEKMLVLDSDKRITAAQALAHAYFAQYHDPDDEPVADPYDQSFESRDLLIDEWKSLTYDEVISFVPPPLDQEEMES

T2 sequence (P07947 whole entry): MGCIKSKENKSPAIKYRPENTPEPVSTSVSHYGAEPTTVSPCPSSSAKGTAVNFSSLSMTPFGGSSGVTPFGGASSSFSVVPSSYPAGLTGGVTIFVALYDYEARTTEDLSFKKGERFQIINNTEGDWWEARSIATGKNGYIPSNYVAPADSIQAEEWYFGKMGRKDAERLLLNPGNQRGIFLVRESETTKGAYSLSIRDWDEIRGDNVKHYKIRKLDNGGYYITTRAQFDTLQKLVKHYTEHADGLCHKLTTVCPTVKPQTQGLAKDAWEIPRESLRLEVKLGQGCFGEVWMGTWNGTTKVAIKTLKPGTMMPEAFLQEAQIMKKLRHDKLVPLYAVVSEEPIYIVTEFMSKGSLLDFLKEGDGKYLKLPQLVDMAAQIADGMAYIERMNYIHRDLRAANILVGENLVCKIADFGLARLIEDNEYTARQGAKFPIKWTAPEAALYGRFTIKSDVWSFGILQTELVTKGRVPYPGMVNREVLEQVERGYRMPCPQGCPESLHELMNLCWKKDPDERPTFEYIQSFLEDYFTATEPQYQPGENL
ABL2, sequence (P42684 whole entry): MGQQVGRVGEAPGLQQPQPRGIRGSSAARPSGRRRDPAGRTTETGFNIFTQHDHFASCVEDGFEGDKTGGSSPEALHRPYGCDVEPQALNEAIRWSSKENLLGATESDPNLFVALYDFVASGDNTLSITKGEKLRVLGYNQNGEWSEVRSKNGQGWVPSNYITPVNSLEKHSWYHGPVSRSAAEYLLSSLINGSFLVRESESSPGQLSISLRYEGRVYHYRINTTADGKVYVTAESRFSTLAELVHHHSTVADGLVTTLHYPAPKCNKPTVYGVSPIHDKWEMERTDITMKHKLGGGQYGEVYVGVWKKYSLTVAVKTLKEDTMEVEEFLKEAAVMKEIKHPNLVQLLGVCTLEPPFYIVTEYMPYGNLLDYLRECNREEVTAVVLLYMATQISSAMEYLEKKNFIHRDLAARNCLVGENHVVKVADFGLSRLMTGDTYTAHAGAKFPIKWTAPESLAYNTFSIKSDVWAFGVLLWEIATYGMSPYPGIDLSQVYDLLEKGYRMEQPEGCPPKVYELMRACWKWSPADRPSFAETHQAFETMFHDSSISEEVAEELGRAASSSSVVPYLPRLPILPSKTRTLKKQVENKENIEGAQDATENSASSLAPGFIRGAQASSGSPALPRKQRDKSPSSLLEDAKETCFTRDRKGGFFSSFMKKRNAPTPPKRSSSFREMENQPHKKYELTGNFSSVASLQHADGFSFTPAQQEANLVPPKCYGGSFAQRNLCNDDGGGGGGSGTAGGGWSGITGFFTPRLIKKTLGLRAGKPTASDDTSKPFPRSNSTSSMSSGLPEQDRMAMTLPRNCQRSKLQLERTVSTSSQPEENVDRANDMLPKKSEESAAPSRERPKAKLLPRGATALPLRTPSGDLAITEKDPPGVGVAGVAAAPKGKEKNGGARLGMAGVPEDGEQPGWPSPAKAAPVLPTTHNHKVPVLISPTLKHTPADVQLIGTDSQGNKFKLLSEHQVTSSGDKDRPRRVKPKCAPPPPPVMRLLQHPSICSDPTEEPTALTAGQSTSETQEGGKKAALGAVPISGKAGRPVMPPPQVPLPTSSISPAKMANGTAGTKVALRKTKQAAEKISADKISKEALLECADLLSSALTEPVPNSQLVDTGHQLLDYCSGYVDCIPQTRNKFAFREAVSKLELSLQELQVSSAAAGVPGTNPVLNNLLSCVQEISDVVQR
BMPR1B, sequence (O00238 whole entry): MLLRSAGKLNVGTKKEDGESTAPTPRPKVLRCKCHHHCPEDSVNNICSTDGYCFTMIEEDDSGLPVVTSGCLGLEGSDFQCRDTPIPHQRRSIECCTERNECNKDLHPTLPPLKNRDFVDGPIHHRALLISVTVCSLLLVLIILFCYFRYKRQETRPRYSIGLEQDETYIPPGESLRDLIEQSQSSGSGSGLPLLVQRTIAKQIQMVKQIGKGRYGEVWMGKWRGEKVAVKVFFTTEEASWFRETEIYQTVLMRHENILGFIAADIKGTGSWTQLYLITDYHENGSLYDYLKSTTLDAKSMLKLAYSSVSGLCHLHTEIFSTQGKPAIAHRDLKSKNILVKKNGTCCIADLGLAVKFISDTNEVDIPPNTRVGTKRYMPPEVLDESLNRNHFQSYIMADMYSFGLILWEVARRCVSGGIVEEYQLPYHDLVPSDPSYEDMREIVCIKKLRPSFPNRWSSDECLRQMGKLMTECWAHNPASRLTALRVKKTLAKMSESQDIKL
T1 sequence (O75582 whole entry): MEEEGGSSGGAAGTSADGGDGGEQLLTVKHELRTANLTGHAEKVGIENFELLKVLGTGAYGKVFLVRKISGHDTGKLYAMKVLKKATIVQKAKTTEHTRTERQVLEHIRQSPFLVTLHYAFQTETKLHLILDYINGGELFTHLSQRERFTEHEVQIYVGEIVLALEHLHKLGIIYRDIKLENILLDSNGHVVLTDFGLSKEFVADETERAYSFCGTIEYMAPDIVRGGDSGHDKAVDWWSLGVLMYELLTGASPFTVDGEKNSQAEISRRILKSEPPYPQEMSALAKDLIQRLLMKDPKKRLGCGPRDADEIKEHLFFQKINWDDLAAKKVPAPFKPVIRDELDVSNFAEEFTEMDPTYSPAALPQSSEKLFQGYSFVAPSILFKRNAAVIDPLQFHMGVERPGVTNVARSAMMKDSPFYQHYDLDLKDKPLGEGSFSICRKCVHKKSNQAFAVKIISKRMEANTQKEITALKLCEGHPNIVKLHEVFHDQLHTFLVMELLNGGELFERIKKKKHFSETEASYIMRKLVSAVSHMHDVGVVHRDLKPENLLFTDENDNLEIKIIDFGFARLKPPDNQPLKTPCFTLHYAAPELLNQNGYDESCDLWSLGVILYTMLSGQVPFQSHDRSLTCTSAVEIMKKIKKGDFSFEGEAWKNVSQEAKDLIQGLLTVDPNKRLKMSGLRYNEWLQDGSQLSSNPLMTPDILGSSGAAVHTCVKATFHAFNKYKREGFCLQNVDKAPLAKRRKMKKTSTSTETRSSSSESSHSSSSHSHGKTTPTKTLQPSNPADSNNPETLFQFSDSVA
EPHB1, sequence (P54762 whole entry): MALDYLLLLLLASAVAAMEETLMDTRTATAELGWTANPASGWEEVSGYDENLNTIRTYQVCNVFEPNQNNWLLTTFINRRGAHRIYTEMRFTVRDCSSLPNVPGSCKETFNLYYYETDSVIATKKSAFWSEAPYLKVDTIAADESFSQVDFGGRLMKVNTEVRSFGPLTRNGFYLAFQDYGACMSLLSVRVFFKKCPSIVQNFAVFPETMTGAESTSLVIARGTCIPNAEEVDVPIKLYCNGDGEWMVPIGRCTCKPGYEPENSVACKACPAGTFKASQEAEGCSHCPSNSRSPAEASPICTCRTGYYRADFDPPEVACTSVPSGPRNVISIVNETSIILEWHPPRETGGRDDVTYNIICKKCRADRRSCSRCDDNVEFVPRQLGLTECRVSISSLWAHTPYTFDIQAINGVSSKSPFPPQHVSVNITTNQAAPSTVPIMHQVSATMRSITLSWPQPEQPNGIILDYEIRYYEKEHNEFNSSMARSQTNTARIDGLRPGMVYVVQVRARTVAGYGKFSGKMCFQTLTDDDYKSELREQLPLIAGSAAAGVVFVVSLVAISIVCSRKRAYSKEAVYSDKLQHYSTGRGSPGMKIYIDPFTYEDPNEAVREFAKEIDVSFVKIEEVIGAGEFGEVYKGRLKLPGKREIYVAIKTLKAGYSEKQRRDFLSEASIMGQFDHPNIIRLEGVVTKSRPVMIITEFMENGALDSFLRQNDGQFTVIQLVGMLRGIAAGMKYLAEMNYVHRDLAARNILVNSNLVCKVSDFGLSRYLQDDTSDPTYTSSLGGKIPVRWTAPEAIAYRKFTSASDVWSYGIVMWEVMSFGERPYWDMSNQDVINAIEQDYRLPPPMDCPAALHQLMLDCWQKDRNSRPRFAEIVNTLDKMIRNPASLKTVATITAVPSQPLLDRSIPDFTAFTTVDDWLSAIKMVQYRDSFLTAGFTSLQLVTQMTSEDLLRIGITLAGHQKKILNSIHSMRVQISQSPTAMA
MAP3K2, sequence (Q9Y2U5 whole entry): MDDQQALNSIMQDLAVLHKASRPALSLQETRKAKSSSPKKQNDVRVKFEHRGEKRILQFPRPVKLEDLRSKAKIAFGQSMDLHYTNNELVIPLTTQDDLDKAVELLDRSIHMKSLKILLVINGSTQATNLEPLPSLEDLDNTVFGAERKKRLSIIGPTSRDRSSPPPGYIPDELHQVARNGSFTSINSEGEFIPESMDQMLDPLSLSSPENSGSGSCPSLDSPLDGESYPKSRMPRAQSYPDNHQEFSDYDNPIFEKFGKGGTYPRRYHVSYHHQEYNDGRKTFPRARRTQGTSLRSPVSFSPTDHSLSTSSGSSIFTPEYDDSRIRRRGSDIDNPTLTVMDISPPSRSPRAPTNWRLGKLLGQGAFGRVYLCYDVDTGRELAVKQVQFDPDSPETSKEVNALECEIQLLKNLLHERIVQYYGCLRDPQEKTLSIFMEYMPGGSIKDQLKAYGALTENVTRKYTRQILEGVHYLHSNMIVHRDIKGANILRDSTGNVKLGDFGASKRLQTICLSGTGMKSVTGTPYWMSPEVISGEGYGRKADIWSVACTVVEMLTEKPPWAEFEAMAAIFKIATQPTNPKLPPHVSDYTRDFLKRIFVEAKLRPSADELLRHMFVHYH

Turning to `Cc1ccc(NC(=O)c2cccc(C(F)(F)F)c2)cc1Nc1cc(-c2cccnc2)nc2[nH]ccc12` [HZX-02-059], the remaining binding at 1 µM worked out at 99% in test [1]; 91% on BMPR1B; 92% at CASK; 100% on AURKB; 100% on SRMS; 86% on YES. Also, the remaining binding at 1 µM at EPHB1 was 39%; on PIP5K1C it was 73%; at DAPK2, 100%; on ABL2, 26%; at TRKC, 100%; on FLT1 it was 96%. Moreover, the remaining binding at 1 µM was 96% at PRKCE; 100% on PAK6; 100% in test [2]; 100% at HIPK2; 95% at FGFR2; 79% in test [3]. The remaining binding at 1 µM on MAP3K2 amounted to 74%; at CDK8, 91%; at SgK110, 100%; at KIT(D816H) it was 100%; on TYRO3 it was 100%; at p38-alpha it was 77%.

These data come from PMC8799717, “Pharmacological targeting PIKfyve and tubulin as an effective treatment strategy for double-hit lymphoma” (Cell Death Discovery, 2022).
